From patent US20220153746A1, “NITROGEN OXIDE-DONATING PDE-5 AND/OR PDE-6 INHIBITOR COMPOUNDS, AND USES THEREOF” (ILDONG PHARMACEUTICAL CO., LTD., priority 2020, published 2022)
Like-named read-outs stand apart in the source and are kept apart here.

Assay: TD Phase (Groups 1 and 3): plasma and ocular tissue concentrations and pharmacokinetics of Compound 18 and its metabolite Compound 4 after once daily ocular instillation of Compound 18 nanosuspension for 7 days
Format: in vivo, New Zealand white rabbits
Settings: for concentration at 2 h / concentration at 4 h / concentration at 8 h / concentration at 0.5 h / concentration at 1 h / Cmax / Tmax / AUC(0-t) / half-life: male, New Zealand white, rabbit; for concentration at 2 h / concentration at 4 h / concentration at 8 h / concentration at 0.5 h / concentration at 1 h: TD Phase; for concentration at 2 h: Group 3, 2 h; for concentration at 4 h: Group 3, 4 h; for concentration at 8 h: Group 3, 8 h; for concentration at 0.5 h: Group 3, 0.5 h; for concentration at 1 h: Group 1, 1 h; for Cmax / Tmax / AUC(0-t) / half-life: topical or ocular; for AUC(0-t): read-out: AUC0-8
Description: This example illustrates the procedures and results for the levels of Compound 18 and its metabolite Compound 4 in plasma and ocular tissues of normotensive rabbits following ocular instillation of Compound 18 once daily for 7 consecutive days.
Twenty five (25) male New Zealand white rabbits were divided into 5 groups of varying amounts of animals per group.
The Test article, Compound 18 was formulated as a 2% nanosuspension in DI water containing 0.2% PS80 (polyoxyethylenesorbitan, monooleate (Tween 80)) and 0.4% HPMC (hydroxypropylmethylcellulose) at pH 6.77. Referred to herein as “Compound 18 nanosuspension.”
The study consisted of three groups (Groups 1-3) of 19 male rabbits (NZW) that underwent once daily morning ocular installation (1 eyedrop) for 7 consecutive days (Day 0-6). Groups 4-5 each consisted of 3 male rabbits (NZW) that were not dosed.
Blood samples (1 mL) were collected from the jugular vein at the intervals set out below for each group. The samples were then inverted several times following collection and held on wet ice until centrifuged. Samples were centrifuged within 60 minutes of collection under refrigeration (set at 5° C. for 10 minutes at 2000 g.
Group 1 (Pilot Study, terminal blood collection): blood was collected from 3 animals at 1 hour post day 7 dose of Compound 18 nanosuspension.
Group 3 (TD Phase, terminal blood collection): blood was collected from 3 animals at 0.5 hour, 3 animals at 2 hours, 3 animals at 4 hours, and 3 animals at 8 hours post day 7 dose of Compound 18 nanosuspension.
Group 1 (Pilot Study): 3 animals were terminated at 1 hour post Day 7 dose of Compound 18 nanosuspension. Following blood collection and termination, ocular tissues (aqueous humor, vitreous humor, cornea, iris/ciliary body, lens, optic nerve, retina, sclera/choroid, and trabecular meshwork) were collected from each animal and the tissue weights were recorded. Note: sclera and choroid were collected together. Iris and ciliary body were collected together.
Group 3 (TD Phase): 3 animals were terminated at 0.5 hour, 3 animals at 2 hours, 3 animals at 4 hours, and 3 animals at 8 hours post Day 7 dose of Compound 18 nanosuspension. Following blood collection and termination, ocular tissues (aqueous humor, vitreous humor, cornea, iris/ciliary body, lens, optic nerve, retina, sclera/choroid, and trabecular meshwork) were collected from each animal and the tissue weights were recorded. Note: sclera and choroid were collected together. Iris and ciliary body were collected together.
Plasma and tissue samples from treated animals (Groups 1-3) were analyzed for Compound 18 and its metabolite Compound 4 concentrations by LC-MS/MS.
Pharmacokinetic analysis was conducted using WinNonlin Version 6.2.1 (Pharsight, Mountain View, Calif.), operating as a validated software system. Noncompartmental analysis was conducted using the extravascular administration model for ocular instillation dosing.
The peak plasma and ocular tissue concentration, time to achieve peak plasma and ocular tissue concentration, half-life, and area under the plasma and ocular tissue concentration-time curve (Cmax, Tmax, T1/2, and AUC) were calculated from the TD phase combined with the pilot study mean animal plasma and ocular tissue concentrations for each sampling time/dose group for Compound 18 and its metabolite Compound 4.
BA Assay: Quantitation Range 0.05 to 100 ng/mL for Compound 18, 0.15 to 100 ng/mL for Compound 4.
3. Pipet 50 μL of each type of pre-spiked ocular tissue samples (AH/VH) for QC samples, 50 μL of incurred aqueous humor, and vitreous humor sample (if applicable) into a 96 well plate.
Ocular Tissues Homogenate Preparation: Incurred rabbit ocular tissues were weighed in Genogrinder tubes (plastic tubes with small beads) at the time of removal from the animal and stored frozen (<−70° C.) until analysis. The rabbit incurred ocular tissues were thawed on wet ice. […]

[1] = iris/ciliary body, topical, 2 mg/day, Mean, read-out: Final Compound 18 Iris/Ciliary Body Conc.
[2] = lens homogenate, topical, 2 mg/day, individual animals, homogenate dilution factor 5, read-out: Compound 18 Lens Homogenate Conc.
[3] = lens, topical, 2 mg/day, Mean, read-out: Final Compound 18 Lens Conc.
[4] = lens, topical, 2 mg/day, individual animals, BQL set to 0, read-out: Final Compound 18 Lens Conc.
[5] = optic nerve, other: ocular instillation (eye drop), 0.798 mg/kg/day, Mean, read-out: Final Compound 18 Optic Nerve Conc.
[6] = plasma, other: ocular instillation (eye drop), 0.8 mg/kg/day, Mean, BQL set to 0, read-out: Compound 18 Plasma Conc.
[7] = plasma, other: ocular instillation (eye drop), 0.8 mg/kg/day, individual animals, read-out: Compound 18 Plasma Conc.
[8] = plasma, other: ocular instillation, 0.8 mg/kg/day, Mean, BQL set to 0, read-out: Compound 18 Plasma Conc.
[9] = retina, other: ocular instillation (eye drop), 0.798 mg/kg/day, Mean, read-out: Final Compound 18 Retina Conc.
[10] = sclera/choroid, other: ocular instillation (eye drop), 0.798 mg/kg/day, Mean, read-out: Final Compound 18 Sclera/Choroid Conc.
[11] = 0.8 mg/kg/day, aqueous humor, Day 7, from mean concentrations
[12] = 0.8 mg/kg/day, cornea, Day 7, from mean concentrations
[13] = 0.8 mg/kg/day, iris/ciliary body, Day 7, from mean concentrations
[14] = 0.8 mg/kg/day, lens, Day 7, from mean concentrations
[15] = 0.8 mg/kg/day, optic nerve, Day 7, from mean concentrations
[16] = 0.8 mg/kg/day, plasma, Day 7, from mean concentrations
[17] = 0.8 mg/kg/day, retina, Day 7, from mean concentrations
[18] = 0.8 mg/kg/day, sclera/choroid, Day 7, from mean concentrations
[19] = 0.8 mg/kg/day, trabecular meshwork, Day 7, from mean concentrations
[20] = 0.8 mg/kg/day, vitreous humor, Day 7, from mean concentrations
[21] = trabecular meshwork, other: ocular instillation (eye drop), 0.798 mg/kg/day, Mean, read-out: Final Compound 18 Trabecular Meshwork Conc.
[22] = vitreous humor, other: ocular instillation (eye drop), 0.8 mg/kg/day, Mean, BQL set to 0, read-out: Compound 18 Vitreous Humor Conc.
[23] = vitreous humor, other: ocular instillation (eye drop), 0.8 mg/kg/day, individual animals, read-out: Compound 18 Vitreous Humor Conc.

CCCc1nn(C)c2c(=O)[nH]c(-c3cc(S(=O)(=O)N4CC(CCCO[N+](=O)[O-])C4)ccc3OCC)nc12 [Compound 18, 3-(1-((4-ethoxy-3-(1-methyl-7-oxo-3-propyl-6,7-dihydro-1H-pyrazolo[4,3-d]pyrimidin-5-yl)phenyl)sulfonyl)azetidin-3-yl)propyl nitrate]
concentration at 2 h [1]: 5.56 ng/g | concentration at 4 h [1]: 4.87 ng/g | concentration at 8 h [1]: 0.967 ng/g | concentration at 0.5 h [2]: 1.27 ng/mL | concentration at 4 h [2]: 0.0767 ng/mL | concentration at 8 h (lens, other: ocular instillation (eye drop), 0.798 mg/kg/day, Mean, read-out: Final Compound 18 Lens Conc.): 0 ng/g | concentration at 1 h [3]: 0 ng/g | concentration at 1 h [4]: 0 ng/g | concentration at 0.5 h [3]: 2.12 ng/g | concentration at 2 h [3]: 0 ng/g | concentration at 2 h [4]: 0 ng/g | concentration at 4 h [3]: 0.128 ng/g | concentration at 8 h [4]: 0 ng/g | concentration at 1 h (optic nerve homogenate, other: ocular instillation (eye drop), 0.798 mg/kg/day, individual animals, homogenate dilution factor 20, read-out: Compound 18 Optic Nerve Homogenate Conc.): 11.8 ng/mL | concentration at 1 h [5]: 231 ng/g | concentration at 1 h (optic nerve, other: ocular instillation (eye drop), 0.798 mg/kg/day, individual animals, read-out: Final Compound 18 Optic Nerve Conc.): 236 ng/g | concentration at 0.5 h [5]: 110 ng/g | concentration at 2 h [5]: 378 ng/g | concentration at 4 h [5]: 128 ng/g | concentration at 8 h [5]: 61.6 ng/g | concentration at 2 h [6]: 0.0397 ng/mL | concentration at 2 h [7]: 0.119 ng/mL | concentration at 8 h [6]: 0.0172 ng/mL | concentration at 8 h [7]: 0.0517 ng/mL | concentration at 1 h [8]: 0.0407 ng/mL | concentration at 1 h (plasma, other: ocular instillation, 0.8 mg/kg/day, individual animals, read-out: Compound 18 Plasma Conc.): 0.0641 ng/mL | concentration at 0.5 h [8]: 0.261 ng/mL | concentration at 0.5 h (retina homogenate, other: ocular instillation (eye drop), 0.798 mg/kg/day, individual animals, homogenate dilution factor 20, read-out: Compound 18 Retina Homogenate Conc.): 0.798 ng/mL | concentration at 1 h [9]: 18.1 ng/g | concentration at 0.5 h [9]: 22 ng/g | concentration at 0.5 h (retina, other: ocular instillation (eye drop), 0.798 mg/kg/day, individual animals, BQL set to 0, read-out: Final Compound 18 Retina Conc.): 16 ng/g | concentration at 2 h [9]: 34.8 ng/g | concentration at 4 h [9]: 27.3 ng/g | concentration at 8 h [9]: 7.17 ng/g | concentration at 1 h (sclera/choroid homogenate, other: ocular instillation (eye drop), 0.798 mg/kg/day, individual animals, homogenate dilution factor 8, read-out: Compound 18 Sclera/Choroid Homogenate Conc.): 3.89 ng/mL | concentration at 1 h [10]: 45.3 ng/g | concentration at 1 h (sclera/choroid, other: ocular instillation (eye drop), 0.798 mg/kg/day, individual animals, read-out: Final Compound 18 Sclera/Choroid Conc.): 31.1 ng/g | concentration at 0.5 h [10]: 107 ng/g | concentration at 2 h [10]: 246 ng/g | concentration at 4 h [10]: 241 ng/g | concentration at 8 h [10]: 26.8 ng/g | Cmax [11]: 0.063 ng/mL | Tmax [11]: 1 h | AUC(0-t) [11]: 0.0158 ng·h/mL | Cmax [12]: 181 ng/g | Tmax [12]: 1 h | half-life [12]: 79.8 min | Cmax [13]: 107 ng/g | Tmax [13]: 1 h | half-life [13]: 135 min | Cmax [14]: 2.12 ng/g | Tmax [14]: 0.5 h | half-life [14]: 51.9 min | Cmax [15]: 378 ng/g | Tmax [15]: 2 h | half-life [15]: 146 min | Cmax [16]: 0.261 ng/mL | Tmax [16]: 0.5 h | AUC(0-t) [16]: 0.255 ng·h/mL | Cmax [17]: 34.8 ng/g | Tmax [17]: 2 h | half-life [17]: 152 min | Cmax [18]: 246 ng/g | Tmax [18]: 2 h | half-life [18]: 106 min | Cmax [19]: 7.67 ng/g | Tmax [19]: 1 h | half-life [19]: 158 min | Cmax [20]: 0.0257 ng/mL | Tmax [20]: 0.5 h | AUC(0-t) [20]: 0.0242 ng·h/mL | Cmax (Cornea, Day 7, Compound 18 0.8 mg/kg ocular instillation once daily, Groups 1 and 3): 181 ng/g | concentration at 1 h [21]: 7.67 ng/g | concentration at 0.5 h [21]: 7.01 ng/g | concentration at 2 h [21]: 11.8 ng/g | concentration at 4 h [21]: 5.52 ng/g | concentration at 8 h (trabecular meshwork, other: ocular instillation, 0.8 mg/kg/day, Mean, read-out: Final Compound 18 Trabecular Meshwork Conc.): 1.93 ng/g | concentration at 0.5 h [22]: 0.0257 ng/mL | concentration at 0.5 h [23]: 0.0771 ng/mL | concentration at 2 h [22]: 0.0228 ng/mL | concentration at 2 h [23]: 0.0683 ng/mL | AUC0-8 (optic nerve, Day 7, from mean concentrations): 1302 ng·h/g | AUC0-8 (retina, Day 7, from mean concentrations): 173 ng·h/g | AUC0-8 (sclera/choroid, Day 7, from mean concentrations): 1234 ng·h/g | AUC0-8 (trabecular meshwork, Day 7, from mean concentrations): 32.4 ng·h/g
